{"source": "patent US6123943A", "about": "“NF-KB activity inhibitor” (Kaken Shoyaku Co., Ltd., priority 1997, dated 2000)", "key": {"[1]": {"experiment": "Acute toxicity test (LD50)", "conditions": "mouse, in vivo, male mice"}, "NF-κB": {"test_system": "NF-κB", "experiment": "Gel shift assay: inhibition of NF-κB binding activation in U1 cells", "type": "cell-based, human", "conditions": "for inhibition at 0.1 µg/mL / inhibition at 1 µg/mL: Homo sapiens", "experimental": "Inhibition Action on NF-κB Binding Activation\nIn order to examine the action of a test compound cepharanthine to inhibit NF-κB binding activation, U1 [a cell strain derived from HIV-1 (HIV type 1) latent infection human monocyte] cells were stimulated or not stimulated with phorbol 12-myristate 13-acetate (PMA) in the presence or absence of the test compound, and the following assay was carried out using a nucleoprotein extract obtained from the resulting cells.\nGel shift assay was carried out using an NF-κB probe of HIV-1. A double-stranded DNA fragment of an NF-κB site-like sequence, 5'-AGTTGAGGGGACTTTCCCAGGC-3' from the transcription initiation point, was used as the NF-κB probe of HIV-1. The 5'-terminus of the probe was radiation-labeled with ^32 p in the usual way using [γ-^32 P]ATP and polynucleotide kinase. […] At the same time, a sample in which a large quantity of non-labeled probe was added to the reaction solution was prepared and the same reaction was carried out as a competitive assay. Thereafter, the ^32 P-labeled NF-κB probe was added thereto to carry out 20 minutes of binding reaction at room temperature. After the reaction, 4% unmodified polyacrylamide gel electrophoresis was carried out in order to separate the DNA-NF-κB complex from free oligonucleotide. The gel was subjected to autoradiography, and NF-κB in the nucleoprotein extract was determined by an image analyzer (BIO-RAD, Model GS-700 Imaging Densitometer).\nThe action of the test compound to inhibit activation of NF-κB binding by PMA stimulation of U1 cells (inhibition ratio, %) is shown in Table 1.\nV3: Cepharanthine control; reaction (2.5 hours) of U1 cells in the\npresence of 0.1 μg/ml of cepharanthine\nV4: Cepharanthine control; reaction (2.5 hours) of U1 cells in the\npresence of 1 μg/ml of cepharanthine\nV6: Reaction (2 hours) of U1 cells in the presence of 0.1 μg/ml of\ncepharanthine + stimulation (0.5 hour) with 10 ng/ml of PMA\nV7: Reaction (2 hours) of U1 cells in the presence of 1 μg/ml of\n**: V6, V7, V8 and V9 vs. V5"}, "HIV-1 LTR": {"test_system": "HIV-1 LTR", "experiment": "HIV-1 LTR CAT assay: inhibition of HIV-1 LTR transcription activity in HeLa cells", "type": "cell-based", "conditions": "48 hours; for % Inhibition: vs. V3 (PMA)", "experimental": "Inhibition action on HIV-1 LTR transcription activity\nIn order to examine effect of a test compound cepharanthine on the HIV-1 transcription activity, CAT assay was carried out by the following method.\nA plasmid in which chloramphenicol acetyltransferase (CAT) gene has been linked to the downstream of HIV-1 LTR gene was introduced by lipofection into HeLa cells adjusted to a density of 1×10^6 cells, and the resulting cells were cultured in the presence or absence of the test compound and phorbol 12-myristate 13-acetate (PMA). After 48 hours of the culturing, the cells were collected and washed to prepare a cell extract using a freeze-thawing method. The thus prepared cell extract was allowed to react with acetyl CoA and [^14 C]-labeled chloramphenicol (CM), and the thus formed acetyl[^14 C]CM was separated by a thin layer chromatography, subjected to autoradiography and then […] measured using an image analyzer (BIO-RAD, Model GS-700 Imaging Densitometer).\nV4: HeLa cells were cultured in the presence of cepharanthine (0.1\nμg/ml) + PMA (10 ng/ml)\nV5: HeLa cells were cultured in the presence of cepharanthine (1 μg/ml"}, "[2]": {"conditions": "0.1 μg/ml, 2 hours + PMA 10 ng/ml, 0.5 hour"}, "[3]": {"conditions": "1 μg/ml, 2 hours + PMA 10 ng/ml, 0.5 hour"}}}
{"smiles": "COc1cc2c3cc1Oc1c(OC)c(OC)cc4c1[C@@H](Cc1ccc(O)c(c1)Oc1ccc(cc1)C[C@@H]3N(C)CC2)N(C)CC4", "note": "[berbamine]", "values": [{"measurement": "LD50", "setting": "[1]; intravenous", "value": 18.8, "unit": "mg/kg"}]}
{"smiles": "COc1cc2c3cc1Oc1c4c(cc5c1[C@H](Cc1ccc(cc1)Oc1cc(ccc1O)C[C@H]3N(C)CC2)N(C)CC5)OCO4", "note": "[cepharanoline]", "values": [{"measurement": "LD50", "setting": "[1]; intravenous", "value": 34.3, "unit": "mg/kg"}]}
{"smiles": "COc1ccc2cc1Oc1ccc(cc1)C[C@H]1c3c(cc4c(c3Oc3cc5c(cc3OC)CCN(C)[C@@H]5C2)OCO4)CCN1C", "note": "[cepharanthine]", "values": [{"measurement": "Area", "setting": "NF-κB; [2]", "value": 70.45, "unit": "mm × mm"}, {"measurement": "Average (OD)", "setting": "NF-κB; [2]", "value": 0.491, "unit": "OD"}, {"measurement": "Labeled amount", "setting": "NF-κB; [2]", "value": 34.59, "unit": "OD × mm × mm"}, {"measurement": "Area", "setting": "NF-κB; 0.1 μg/ml, 2.5 hours, no PMA", "value": 70.53, "unit": "mm × mm"}, {"measurement": "Average (OD)", "setting": "NF-κB; 0.1 μg/ml, 2.5 hours, no PMA", "value": 0.447, "unit": "OD"}, {"measurement": "Labeled amount", "setting": "NF-κB; 0.1 μg/ml, 2.5 hours, no PMA", "value": 31.53, "unit": "OD × mm × mm"}, {"measurement": "Area", "setting": "NF-κB; [3]", "value": 50.63, "unit": "mm × mm"}, {"measurement": "Average (OD)", "setting": "NF-κB; [3]", "value": 0.490, "unit": "OD"}, {"measurement": "Labeled amount", "setting": "NF-κB; [3]", "value": 24.81, "unit": "OD × mm × mm"}, {"measurement": "Area", "setting": "NF-κB; 1 μg/ml, 2.5 hours, no PMA", "value": 69.15, "unit": "mm × mm"}, {"measurement": "Average (OD)", "setting": "NF-κB; 1 μg/ml, 2.5 hours, no PMA", "value": 0.442, "unit": "OD"}, {"measurement": "Labeled amount", "setting": "NF-κB; 1 μg/ml, 2.5 hours, no PMA", "value": 30.56, "unit": "OD × mm × mm"}, {"measurement": "inhibition at 0.1 µg/mL", "setting": "NF-κB; 0.1 μg/ml, 2 hours + PMA 10 ng/ml, 0.5 hour, vs. V5 (PMA)", "value": 24.7, "unit": "%"}, {"measurement": "inhibition at 0.1 µg/mL", "setting": "NF-κB; 0.1 μg/ml, 2.5 hours, no PMA, vs. V2 (untreated U1 cells)", "value": 10.9, "unit": "%"}, {"measurement": "inhibition at 1 µg/mL", "setting": "NF-κB; 1 μg/ml, 2 hours + PMA 10 ng/ml, 0.5 hour, vs. V5 (PMA)", "value": 46, "unit": "%"}, {"measurement": "inhibition at 1 µg/mL", "setting": "NF-κB; 1 μg/ml, 2.5 hours, no PMA, vs. V2 (untreated U1 cells)", "value": 13.7, "unit": "%"}, {"measurement": "LD50", "setting": "[1]; intravenous", "value": 47, "unit": "mg/kg"}, {"measurement": "LD50", "setting": "[1]; oral", "value": 3410, "unit": "mg/kg"}, {"measurement": "Area", "setting": "HIV-1 LTR; 0.1 μg/ml + PMA (10 ng/ml)", "value": 54.31, "unit": "mm × mm"}, {"measurement": "Average (OD)", "setting": "HIV-1 LTR; 0.1 μg/ml + PMA (10 ng/ml)", "value": 0.892, "unit": "OD"}, {"measurement": "Labeled amount", "setting": "HIV-1 LTR; 0.1 μg/ml + PMA (10 ng/ml)", "value": 48.44, "unit": "OD × mm × mm"}, {"measurement": "% Inhibition", "setting": "HIV-1 LTR; 0.1 μg/ml + PMA (10 ng/ml)", "value": 33.1, "unit": "%"}, {"measurement": "Area", "setting": "HIV-1 LTR; 1 μg/ml + PMA (10 ng/ml)", "value": 41.00, "unit": "mm × mm"}, {"measurement": "Average (OD)", "setting": "HIV-1 LTR; 1 μg/ml + PMA (10 ng/ml)", "value": 0.867, "unit": "OD"}, {"measurement": "Labeled amount", "setting": "HIV-1 LTR; 1 μg/ml + PMA (10 ng/ml)", "value": 35.55, "unit": "OD × mm × mm"}, {"measurement": "% Inhibition", "setting": "HIV-1 LTR; 1 μg/ml + PMA (10 ng/ml)", "value": 50.9, "unit": "%"}]}
{"smiles": "COc1cc2c3c(c1OC)Oc1ccc(cc1)C[C@@H]1c4c(cc(OC)c(OC)c4Oc4ccc(cc4)C[C@H]3N(C)CC2)CCN1C", "note": "[cycleanine]", "values": [{"measurement": "LD50", "setting": "[1]; intravenous", "value": 62.5, "unit": "mg/kg"}]}
{"smiles": "COc1ccc2cc1Oc1ccc(cc1)C[C@H]1c3c(cc(OC)c(O)c3Oc3cc4c(cc3OC)CCN(C)[C@@H]4C2)CCN1C", "note": "[homoaromoline]", "values": [{"measurement": "LD50", "setting": "[1]; intravenous", "value": 42.4, "unit": "mg/kg"}]}
{"smiles": "COc1ccc2cc1Oc1ccc(cc1)C[C@H]1c3cc(c(OC)cc3CCN1C)Oc1c(OC)c(OC)cc3c1[C@@H](C2)N(C)CC3", "note": "[isotetrandrine]", "values": [{"measurement": "LD50", "setting": "[1]; intravenous", "value": 32.5, "unit": "mg/kg"}]}
